According to patent publication US11185527B2, “Methods and compositions relating to steroid hormone receptor-dependent cancers” (Wayne State University, priority 2017, dated 2021):

Assays:
[1] = system: ARE-dependent promoter activation by AR; assay: Counter screening assay: ARE-luciferase reporter in recombinant HeLa cells expressing AR; assay type: cell-based, human; details: testosterone-treated recombinant HeLa cells
Excerpt: FIG. 6B is a schematic diagram of the reporter system for the counter screening assay. Recombinant HeLa cells used in this assay are identical to the primary screening cells except for the absence of Gal4-ELK1 and substitution of the Gal4 elements in the promoter with a canonical ARE. In this case, testosterone causes cytosolic AR to translocate to the nucleus and bind to the ARE in the promoter resulting in activation of the luciferase reporter.
The cells generated for counter screening, are HeLa cells stably transduced with a lentiviral plasmid construct containing a minimal promoter-luciferase reporter and an upstream androgen response element (ARE) sequence. These HeLa cells were also transduced with a lentiviral expression plasmid encoding the full-length AR. These lentiviral constructs were made as follows. Custom synthesized PCR primers were used to amplify and clone the ARE sequence from a pG5luc plasmid construct containing an ARE sequence element into the pGreenFire1 ™-mCMV-EF1-Neo (Plasmid) at SpeI (upstream) and BamHI (downstream) sites. pG5luc Vector is well known and the complete sequence has NCBI accession #AF264724. The ARE containing pG5luc plasmid is described in detail in Patki et al., 2013, J Biol Chem, 288:11047-11065. The lentiviral vector expressing ARE-luciferase reporter was then packaged in lentivirus and parental HeLa cells were infected as described below under the heading “Lentivirus-mediated-Transduction.” After 72h of infection, 400 ug/mL of Geneticin was added to the culture medium to select for the transduced cells. These cells were then infected with the lentivirus containing the full length AR expression plasmid described above. After 72h of infection, 2 ug/mL of Puromycin was added to the culture medium to select for the transduced cells. Clonal cells harboring both the ARE-promoter-luciferase reporter and also stably expressing AR were then isolated using cloning cylinders as described above. The selected clones were further expanded and then tested for luciferase induction by testosterone. The clone that gave the greatest luciferase signal to noise ratio in response to testosterone treatment was then chosen for use in the counter screening assay for high throughput small molecule screening. All of the plasmid constructs generated above were sequenced to verify DNA sequences before, the constructs were used.
For high throughput screening, recombinant primary screening cells were first depleted of hormone by growing them for 24h in medium in which the serum used was heat-inactivated and charcoal-stripped. The cells were then plated in 384-well white flat bottom plates (5,000 cells/well) (Corning Product #3570) using a Multidrop (Thermo Fisher Scientific, Waltham, Mass.). […]

[2] = system: HEK293 (adenovirus transformed kidney fibroblasts), AR-negative; assay: Cell monolayer growth assay (MTT); assay type: cell-based
Method: FIG. 12C is a graph showing the effect of KCI807 on in vitro growth of AR-negative cell line HEK293 cells measured by the MTT assay. All values were plotted relative to the Day zero value.
Cells were trypsinized and 3000-4000 cells/well were seeded in 96-well plates coated with poly-D-lysine. The cells were seeded in phenol red-free medium supplemented with 10% FBS, 100 units/ml penicillin, 100 μg/ml streptomycin, 2 mM L-glutamine mixture and sodium pyruvate (1 mM) for LNCaP cells and phenol red-free medium supplemented with 10% FBS, 100 units/ml penicillin, 100 μg/ml streptomycin and 2 mM L-glutamine mixture for VCaP, 22Rv1, DU145, HeLa, HEK293 and H1650 cells. The cells were grown at 37° C. in 5% CO2. Twenty four hours after seeding in the 96-well plates, the cells were treated with the indicated concentration of KCI807 or DMSO (vehicle). The cells were re-treated on Day 3 by removing half the volume of medium and replacing it with fresh treated medium. Cell viability was determined using the MTT assay from day zero until day five. MTT (10 μL, 5 mg/mL) was added to each well and incubated for 2h at 37° C. The formazan crystal sediments were dissolved in 100 μL of DMSO, and the absorbance at 570 nm was measured using the BioTek Synergy 2 Microplate Reader (BioTek, Winooski, Vt.). The assay was conducted in sextuplicate wells and values were normalized to day zero.

ZR-75-1 cells = assay: Breast cancer cell growth, MTT assay; assay type: cell-based
Method: FIG. 17A is a graph showing the effect on growth of various concentrations of 5,3′-Dihydroxyflavone on breast cancer cell line ZR-75-1 using the MTT assay.
Twenty four hours after plating the cells, they were treated with the indicated concentrations of the compound.

[3] = Metabolite identification in serum of treated mice by LC-MS/MS; assay type: in vivo, mouse; details: 250 mg/kg every other day
Excerpt: To identify potential metabolites of KCI807 in mice, serum and liver samples collected from the control (untreated) and KCI807-treated mice were subjected to the LC-MS/MS analysis. Sample preparation and chromatographic separation were the same as that described above. Column eluents of the control and drug-treated samples were surveyed using different scan modes including full scan, product scan, and multiple reaction monitoring scan. […] The […] was operated under the optimized condition as for KCI807, and hypothesized theoretical mass transitions for potential metabolites were monitored (see Tables 3 and 4).
If a chromatographic peak monitored at the theoretical transition(s) corresponding to a particular metabolite was identified in the drug-treated samples but not in the control (untreated) samples, this metabolite was identified as a metabolite of KCI807, see FIG. 20.
Serum from mice that were injected with 250 mg/kg of 5,3′-Dihydroxyflavone every other day for two weeks was analyzed to identify potential metabolites by LCMS using hypothesized mass transitions. […]

Compound	inhibition of ARE-dependent promoter activation by AR (in words) [1]	growth of HEK293 cells [2]	growth of ZR-75-1 cells (ZR-75-1 cells)	major metabolites / compounds identified in plasma or serum [3]	major metabolites / compounds identified in plasma or serum ([3]; listed as 5,3′-Dihydroxyflavone)
CNC(=O)c1ccc(N2C(=S)N(c3ccc(C#N)c(C(F)(F)F)c3)C(=O)C2(C)C)cc1F [enzalutamide]	completely suppressed the signal				
O=c1cc(-c2cccc(O)c2)oc2cccc(O)c12 [KCI807, 5,3′-dihydroxyflavone]		did not appreciably affect the growth	did not inhibit the growth	glucuronidation and other modifications at the 3′ position	Unmetabolized compound and a single glucuronide metabolite modified at the 3′-OH position
